The values below come from patent US20230096766A1, “AMINO ACID HAVING FUNCTIONAL GROUP CAPABLE OF INTERMOLECULAR HYDROGEN BONDING, PEPTIDE COMPOUND CONTAINING SAME AND METHOD FOR PRODUCTION THEREOF” (Chugai Seiyaku Kabushiki Kaisha, priority 2018, published 2023).

*1 amine or outer side, *2 acyl side, *3 side chain or, on linkers, in order; H or OH if unused. Where a SMILES comes first, the peptide text is derived from it. Bridges are numbered along the chain shown (N, C = ends). [ ]: non-standard residue; d: D form. The star is where a group is joined. ξ: configuration not given here. dhPhe(4-CONHMe,3-OMe) = CNC(=O)c1ccc(CC[C@@H](N)C(=O)O)cc1OC; NMePhe(3-Cl) = CN[C@@H](Cc1cccc(Cl)c1)C(=O)O; X12 = O=C([C@H](CCCC(O)C(F)(F)F)N[*:1])[*:2]; NMehPhe = CN[C@@H](CCc1ccccc1)C(=O)O; NMeF = CN[C@@H](Cc1ccccc1)C(=O)O; NMeGABA = CN(CCCC(=O)[*:2])[*:1]; NMeI = CC[C@H](C)[C@H](NC)C(=O)O; NMeβAla = CN(CCC(=O)[*:2])[*:1]; ξThr(3R) = C[C@@H](O)C(N)C(=O)O; CH2CH(OH)CF3 = OC(C*)C(F)(F)F; CH2CONHtBu = CC(C)(C)NC(=O)C*; NMeL = CN[C@@H](CC(C)C)C(=O)O; NMeV = CN[C@H](C(=O)O)C(C)C; NMeAbu = CC[C@H](NC)C(=O)O; NMeA = CN[C@@H](C)C(=O)O; Piperidide = C1CCN(*)CC1; CH2CMe2OH = CC(C)(O)C*; CH2CONHMe = CNC(=O)C*; NBuGly = CCCCNCC(=O)O; NPrGly = CCCNCC(=O)O; Sar = CNCC(=O)O; tBu = CC(C)(C)*

Broadly, the Papp is a coefficient for how fast a substance crosses the barrier.

A short description of the first series: in vitro. Particulars: human, Caco-2, Caco-2 (cm/sec).
For `CC(C)C[C@H]1C(=O)N[C@@H](Cc2ccc(O)cc2)C(=O)N(C)CC(=O)N(C)[C@@H](C)C(=O)N(C)[C@@H](CC(C)C)C(=O)N[C@@H](COC(C)(C)C)C(=O)N(C)[C@@H](C(C)C)C(=O)N[C@H](C(=O)N2CCCCC2)CC(=O)N(C)CC(=O)N(C)[C@@H](Cc2ccccc2)C(=O)N[C@@H](C(C)C)C(=O)N1C` [pd115] ([Sar][NMeF]V[NMeL]Y[Sar][NMeA][NMeL]S(tBu)[NMeV]D-Piperidide; lactam N-11), the Papp was found to be 0.22 ×10⁻⁶ cm/s.

As for `CC[C@H](C)[C@@H]1NC(=O)[C@H](CC(C)C)N(C)C(=O)CCCN(C)C(=O)C[C@@H](C(=O)N2CCCCC2)NC(=O)[C@H](CC(C)C)N(C)C(=O)[C@H](CC(C)C)N(C)C(=O)[C@H]([C@@H](C)O)NC(=O)[C@H](CC(C)C)N(C)C(=O)[C@H](COCC(C)(C)O)NC(=O)[C@H](Cc2cccc(Cl)c2)N(C)C(=O)[C@H](Cc2ccccc2)N(C)C1=O` [AP04] ([NMeGABA][NMeL]I[NMeF][NMePhe(3-Cl)]S(CH2CMe2OH)[NMeL]T[NMeL][NMeL]D-Piperidide; lactam N-11), the Papp turned out to be 0.53 ×10⁻⁶ cm/s.

Compound `CCCN1CC(=O)N(C)[C@@H](C)C(=O)N[C@H](C(=O)N2CCCCC2)CC(=O)N(C)[C@@H](CC(C)C)C(=O)N[C@@H](Cc2ccccc2)C(=O)N(C)[C@@H](CC(C)C)C(=O)N(C)[C@@H](CC(C)C)C(=O)N[C@@H](COCC(=O)NC(C)(C)C)C(=O)N(C)[C@@H](CCc2ccccc2)C(=O)N(C)[C@@H](CC(C)C)C(=O)N[C@@H]([C@@H](C)O)C1=O` [AP15] ([NMeL]F[NMeL][NMeL]S(CH2CONHtBu)[NMehPhe][NMeL]T[NPrGly][NMeA]D-Piperidide; lactam N-11) gave a Papp of 0.86 ×10⁻⁶ cm/s.

`CC(C)C[C@@H]1NC(=O)[C@H](Cc2ccccc2)N(C)C(=O)[C@H](CC(C)C)N(C)C(=O)CCN(C)C(=O)C[C@@H](C(=O)N2CCCCC2)NC(=O)[C@H](CC(C)C)N(C)C(=O)[C@H](Cc2ccccc2)N(C)C(=O)[C@H]([C@@H](C)O)NC(=O)[C@H](Cc2ccccc2)N(C)C1=O` [pd207] ([NMeβAla][NMeL][NMeF]L[NMeF]T[NMeF][NMeL]D-Piperidide; lactam N-9) showed a Papp of 1.7 ×10⁻⁶ cm/s. This Papp lies about 2-fold higher than the previous one.

Turning to `CNC(=O)c1ccc(CC[C@H]2NC(=O)[C@H](CC(C)C)N(C)C(=O)CN(C)C(=O)C([C@@H](C)O)NC(=O)[C@H](CC(C)C)N(C)C(=O)[C@H](CC(C)C)NC(=O)[C@H](Cc3ccccc3)N(C)C(=O)[C@@H](C(C)C)NC(=O)C[C@@H](C(=O)N3CCCCC3)NC(=O)[C@H](CC(C)C)N(C)C(=O)[C@H](CC(C)C)N(C)C2=O)cc1OC` (stereo partly drawn) [AP208] ([dV][NMeF]L[NMeL][ξThr(3R)][Sar][NMeL][dhPhe(4-CONHMe,3-OMe)][NMeL][NMeL]D-Piperidide; lactam N-11), the Papp is 0.6 ×10⁻⁶ cm/s.

Staying with this series, now noted: human, Caco-2, Caco-2 (membrane permeability).
The compound `CC[C@H]1C(=O)N(C)[C@@H](Cc2ccccc2)C(=O)N[C@@H](CC(C)C)C(=O)N(C)[C@@H](Cc2ccccc2)C(=O)N(C)[C@@H](C(C)C)C(=O)N[C@@H](CCCC(O)C(F)(F)F)C(=O)N(C)CC(=O)N(C)[C@@H](CC(C)C)C(=O)N[C@H](C(=O)N2CCCCC2)CC(=O)N(C)[C@@H](C)C(=O)N[C@@H](CC(C)C)C(=O)N1C` (stereo partly drawn) [Compound D14] ([NMeA]L[NMeAbu][NMeF]L[NMeF][NMeV][X12][Sar][NMeL]D-Piperidide; lactam N-11) came in with an apparent permeability coefficient (Papp) of 0.9 ×10⁻⁶ cm/s.

`CNC(=O)COC[C@@H]1NC(=O)[C@H](CC(C)C)N(C)C(=O)C[C@@H](C(=O)N2CCCCC2)NC(=O)[C@H](CC(C)C)N(C)C(=O)CN(C)C(=O)[C@H]([C@@H](C)O)NC(=O)[C@H](CC(C)C)N(C)C(=O)[C@H](CCc2ccccc2)N(C)C(=O)[C@H](CC(C)C)NC(=O)[C@H](Cc2ccccc2)N(C)C(=O)[C@H](CC(C)C)N(C)C1=O` [Compound I03] ([NMeL]S(CH2CONHMe)[NMeL][NMeF]L[NMehPhe][NMeL]T[Sar][NMeL]D-Piperidide; lactam N-11) displayed a Papp of 0.25 ×10⁻⁶ cm/s.

Compound `CCCCN1CC(=O)N(C)[C@@H](CC(C)C)C(=O)N[C@@H](COCC(O)C(F)(F)F)C(=O)N(C)[C@@H](Cc2ccccc2)C(=O)N(C)[C@@H](C(C)C)C(=O)N[C@H](C(=O)N2CCCCC2)CC(=O)N[C@H](C(C)C)C(=O)N(C)[C@@H](Cc2ccccc2)C(=O)N[C@@H](CC(C)C)C(=O)N(C)[C@@H](CC(C)C)C(=O)N[C@@H]([C@@H](C)O)C1=O` (stereo partly drawn) [Compound C09] ([dV][NMeF]L[NMeL]T[NBuGly][NMeL]S(CH2CH(OH)CF3)[NMeF][NMeV]D-Piperidide; lactam N-11) gave a Papp of 0.12 ×10⁻⁶ cm/s.

In the case of `CC[C@H](C)[C@H]1C(=O)N[C@@H]([C@@H](C)O)C(=O)N(C)CC(=O)N(C)[C@@H](CC(C)C)C(=O)N[C@H](C(=O)N2CCCCC2)CC(=O)N(C)[C@@H](C(C)C)C(=O)N[C@@H](CC(C)C)C(=O)N(C)[C@@H](CC(C)C)C(=O)N(C)[C@@H](Cc2ccccc2)C(=O)N[C@@H](COCC(O)C(F)(F)F)C(=O)N(C)[C@@H](Cc2ccccc2)C(=O)N1C` (stereo partly drawn) [Compound C05] ([NMeV]L[NMeL][NMeF]S(CH2CH(OH)CF3)[NMeF][NMeI]T[Sar][NMeL]D-Piperidide; lactam N-11), the Papp was determined as 0.57 ×10⁻⁶ cm/s.
